pIC50: −log10 of the molar value.
Legend:
Assay type in all cases: biochemical
[1] = target: T1, human Lck enzyme (Homo sapiens, UniProt P06239); test: Lck enzyme inhibitory activity (time-resolved fluorometry, biotinylated peptide phosphorylation); details: read-out: LCK_IC50
T1 construct: purchased Carna Biosciences, Inc. 08-170
In short: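 Readout pairs a europium cryptate-labelled anti-phosphotyrosine antibody with XL665-streptavidin, measured by time-resolved fluorescence. IC50 derived from percent inhibition against untreated controls.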

[2] = target: T2, human Yes1 enzyme (Homo sapiens, UniProt P07947); test: Yes1 enzyme inhibitory activity (time-resolved fluorometry, biotinylated peptide phosphorylation); details: read-out: YES_IC50
T2 construct: made in house
In short: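 Inhibition was expressed against a compound-free control to give IC50, using TR-FRET read-out (Eu-cryptate anti-pTyr antibody, streptavidin-XL665).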

[3] = target: T3, human Src enzyme (Homo sapiens, UniProt P12931); test: Src enzyme inhibitory activity (time-resolved fluorometry, biotinylated peptide phosphorylation); details: read-out: SRC_IC50
T3 construct: purchased Carna Biosciences, Inc. 08-173
In short: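 Compounds were tested for blocking tyrosine phosphorylation of a biotinylated peptide substrate by recombinant human Src. Phosphorylated product was quantified by time-resolved fluorometry using europium cryptate and XL665 conjugates, and IC50 was calculated against the compound-free control.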

T1 sequence (P06239 whole entry): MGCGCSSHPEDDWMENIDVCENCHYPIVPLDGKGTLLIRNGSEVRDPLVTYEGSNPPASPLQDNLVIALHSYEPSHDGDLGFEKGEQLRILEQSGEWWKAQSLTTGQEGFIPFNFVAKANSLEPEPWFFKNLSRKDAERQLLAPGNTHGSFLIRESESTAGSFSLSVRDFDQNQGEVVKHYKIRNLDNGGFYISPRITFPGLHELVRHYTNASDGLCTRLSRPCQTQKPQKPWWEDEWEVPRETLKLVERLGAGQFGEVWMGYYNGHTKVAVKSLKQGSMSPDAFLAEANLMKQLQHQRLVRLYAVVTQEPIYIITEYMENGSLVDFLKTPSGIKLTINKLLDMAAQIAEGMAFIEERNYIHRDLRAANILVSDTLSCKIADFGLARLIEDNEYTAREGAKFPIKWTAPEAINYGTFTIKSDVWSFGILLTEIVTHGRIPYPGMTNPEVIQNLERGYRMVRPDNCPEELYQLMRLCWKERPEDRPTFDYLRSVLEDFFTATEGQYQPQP
T3 sequence (P12931 whole entry): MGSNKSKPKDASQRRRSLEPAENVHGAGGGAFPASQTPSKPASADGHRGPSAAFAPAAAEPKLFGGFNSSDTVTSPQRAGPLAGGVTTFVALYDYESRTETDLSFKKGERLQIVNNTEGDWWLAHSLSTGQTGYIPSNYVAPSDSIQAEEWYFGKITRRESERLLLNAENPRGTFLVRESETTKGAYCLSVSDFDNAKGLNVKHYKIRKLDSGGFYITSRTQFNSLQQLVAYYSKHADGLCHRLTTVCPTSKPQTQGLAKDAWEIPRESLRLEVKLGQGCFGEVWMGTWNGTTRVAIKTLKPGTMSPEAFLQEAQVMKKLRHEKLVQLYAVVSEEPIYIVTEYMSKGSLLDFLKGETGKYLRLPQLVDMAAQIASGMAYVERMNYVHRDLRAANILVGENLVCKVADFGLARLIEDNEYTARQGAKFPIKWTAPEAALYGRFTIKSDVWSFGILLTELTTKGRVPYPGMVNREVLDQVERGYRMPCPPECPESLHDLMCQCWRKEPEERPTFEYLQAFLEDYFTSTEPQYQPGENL
T2 sequence (P07947 whole entry): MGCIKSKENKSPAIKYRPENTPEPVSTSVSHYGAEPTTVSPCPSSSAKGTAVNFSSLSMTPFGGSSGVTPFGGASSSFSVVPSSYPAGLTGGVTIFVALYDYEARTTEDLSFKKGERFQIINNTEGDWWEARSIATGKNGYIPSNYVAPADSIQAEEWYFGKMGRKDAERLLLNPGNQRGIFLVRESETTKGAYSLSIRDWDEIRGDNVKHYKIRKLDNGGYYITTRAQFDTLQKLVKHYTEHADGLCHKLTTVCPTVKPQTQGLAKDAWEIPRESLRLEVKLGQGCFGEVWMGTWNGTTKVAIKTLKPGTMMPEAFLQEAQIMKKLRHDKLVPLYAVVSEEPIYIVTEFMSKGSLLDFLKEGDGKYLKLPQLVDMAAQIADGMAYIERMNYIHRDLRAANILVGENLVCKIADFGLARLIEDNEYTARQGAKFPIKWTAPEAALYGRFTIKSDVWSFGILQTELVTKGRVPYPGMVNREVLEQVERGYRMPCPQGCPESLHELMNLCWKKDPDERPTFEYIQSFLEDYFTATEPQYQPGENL

pIC50 [1]	pIC50 [2]	pIC50 [3]	SMILES
8.92	9.52	8.34	Cc1cc(Oc2c(F)cccc2F)ncc1-n1ncc(C(=O)c2cc3cc(OC4CCN(C(C)C)CC4)c(N4C(=O)NC(C)(C)C4=O)cc3[nH]2)c1N [Example 5-1-188, 3-[2-[5-amino-1-[6-(2,6-difluorophenoxy)-4-methylpyridin-3-yl]pyrazole-4-carbonyl]-5-(1-propan-2-ylpiperidin-4-yl)oxy-1H-indol-6-yl]-5,5-dimethylimidazolidine-2,4-dione]
8.82	9.42	8.48	Cc1cc(Oc2ccccc2F)ccc1-n1ncc(C(=O)c2cc3cc(OC4CCN(C(C)C)CC4)c(NS(C)(=O)=O)cc3[nH]2)c1N [Example 5-1-189, N-[2-[5-amino-1-[4-(2-fluorophenoxy)-2-methylphenyl]pyrazole-4-carbonyl]-5-(1-propan-2-ylpiperidin-4-yl)oxy-1H-indol-6-yl] methanesulfonamide]
8.89	9.39	8.74	Cc1cc(Oc2ccccc2F)ccc1-n1ncc(C(=O)c2cc3cc(OC4CCN(C(C)C)CC4)c(N4CCOCC4)cc3[nH]2)c1N [Example 5-1-190, [5-amino-1-[4-(2-fluorophenoxy)-2-methylphenyl]pyrazol-4-yl]-[6-morpholin-4-yl-5-(1-propan-2-ylpiperidin-4-yl)oxy-1H-indol-2-yl]methanone]
8.80	9.32	8.66	Cc1cc(Oc2ccccc2F)ccc1-n1ncc(C(=O)c2cc3cc(OC4CCN(C(C)C)CC4)c(N4CCN(S(C)(=O)=O)CC4)cc3[nH]2)c1N [Example 5-1-191, [5-amino-1-[4-(2-fluorophenoxy)-2-methylphenyl]pyrazol-4-yl]-[6-(4-methylsulfonylpiperazin-1-yl)-5-(1-propan-2-ylpiperidin-4-yl)oxy-1H-indol-2-yl]methanone]
9.07	9.54	8.96	Cc1cc(Oc2ccccc2F)ccc1-n1ncc(C(=O)c2cc3cc(OC4CCN(C(C)C)CC4)c(N4CCOC4=O)cc3[nH]2)c1N [Example 5-1-192, 3-[2-[5-amino-1-[4-(2-fluorophenoxy)-2-methylphenyl]pyrazole-4-carbonyl]-5-(1-propan-2-ylpiperidin-4-yl)oxy-1H-indol-6-yl]-1,3-oxazolidin-2-one]
8.89	9.49	8.64	Cc1cc(Oc2ccccc2F)ccc1-n1ncc(C(=O)c2cc3cc(OC4CCN(C(C)C)CC4)c(N4C(=O)NC(C)(C)C4=O)cc3[nH]2)c1N [Example 5-1-193, 3-[2-[5-amino-1-[4-(2-fluorophenoxy)-2-methylphenyl]pyrazole-4-carbonyl]-5-(1-propan-2-ylpiperidin-4-yl)oxy-1H-indol-6-yl]-6,5-dimethylimidazolidine-2,4-dione]
8.92	9.46	8.82	Cc1cc(Oc2ccccc2F)ccc1-n1ncc(C(=O)c2cc3cc(OC4CCN(C(C)C)CC4)c(N4CCC(N5CCOCC5)CC4)cc3[nH]2)c1N [Example 5-1-194, [5-amino-1-[4-(2-fluorophenoxy)-2-methylphenyl]pyrazol-4-yl]-[6-(4-morpholin-4-ylpiperidin-1-yl)-5-(1-propan-2-ylpiperidin-4-yl)oxy-1H-indol-2-yl]methanone]
7.35	8.89	6.72	Cc1cc(-n2ncc(C(=O)c3cc4cc(OC5CCN(C(C)C)CC5)c(F)cc4[nH]3)c2N)ccc1Oc1ccccc1F [Example 5-1-195, [5-amino-1-[4-(2-fluorophenoxy)-3-methylphenyl]pyrazol-4-yl]-[6-fluoro-5-(1-propan-2-ylpiperidin-4-yl)oxy-1H-indol-2-yl] methanone]
7.17	8.77	6.72	Cc1cc(-n2ncc(C(=O)c3cc4cc(OC5CCN(C(C)C)CC5)c(Cl)cc4[nH]3)c2N)ccc1Oc1ccccc1F [Example 5-1-196, [5-amino-1-[4-(2-fluorophenoxy)-3-methylphenyl]pyrazol-4-yl]-[6-chloro-5-(1-propan-2-ylpiperidin-4-yl)oxy-1H-indol-2-yl] methanone]
8.08	9.06	8.11	Cc1cc(Oc2ccccc2F)ccc1-n1ncc(C(=O)c2cc3cc(OC4CCN(C(C)C)CC4)c(Cl)cc3[nH]2)c1N [Example 5-1-197, [5-amino-1-[4-(2-fluorophenoxy)-2-methylphenyl]pyrazol-4-yl]-[6-chloro-5-(1-propan-2-ylpiperidin-4-yl)oxy-1H-indol-2-yl] methanone]
7.44	8.82	6.57	Cc1cc2cc(C(=O)c3cnn(-c4ccc(Oc5ccccc5F)c(F)c4)c3N)[nH]c2cc1NS(C)(=O)=O [Example 5-1-198, N-[2-[5-amino-1-[3-fluoro-4-(2-fluorophenoxy)phenyl]pyrazole-4-carbonyl]-5-methyl-1H-indol-6-yl]methanesulfonamide]
7.43	8.57	7.11	Cc1cc2cc(C(=O)c3cnn(-c4cc(F)c(Oc5ccccc5F)cc4C)c3N)[nH]c2cc1NS(C)(=O)=O [Example 5-1-199, N-[2-[5-amino-1-[5-fluoro-4-(2-fluorophenoxy)-2-methylphenyl]pyrazole-4-carbonyl]-5-methyl-1H-indol-6-yl]methanesulfonamide]
6.57	7.28	6.04	Cc1cc2cc(C(=O)c3cnn(-c4cc(C)c(Oc5ccccc5F)cc4C)c3N)[nH]c2cc1NS(C)(=O)=O [Example 5-1-200, N-[2-[5-amino-1-[4-(2-fluorophenoxy)-2,5-dimethylphenyl]pyrazole-4-carbonyl]-5-methyl-1H-indol-6-yl]methanesulfonamide]
8.49	9.60	8.46	Cc1cc(Oc2c(F)cccc2F)ncc1-n1ncc(C(=O)c2cc3cc(OC4CCN(C(C)C)CC4)c(N4CCC(N5CCOCC5)CC4)cc3[nH]2)c1N [Example 5-1-201, [5-amino-1-[6-(2,6-difluorophenoxy)-4-methylpyridin-3-yl]pyrazol-4-yl]-[6-(4-morpholin-4-ylpiperidin-1-yl)-5-(1-propan-2-ylpiperidin-4-yl)oxy-1H-indol-2-yl]methanone]
8.55	9.77	8.51	Cc1cc(Oc2c(F)cccc2F)ncc1-n1ncc(C(=O)c2cc3cc(OC4CCN(C(C)C)CC4)c(N4CCC(O)CC4)cc3[nH]2)c1N [Example 5-1-202, [5-amino-1-[6-(2,6-difluorophenoxy)-4-methylpyridin-3-yl]pyrazol-4-yl]-[6-(4-hydroxypiperidin-1-yl)-5-(1-propan-2-ylpiperidin-4-yl)oxy-1H-indol-2-yl]methanone]
8.21	9.44	8.15	Cc1cc(Oc2ccccc2F)ccc1-n1ncc(C(=O)c2cc3cc(OC4CCN(C(C)C)CC4)c(F)cc3[nH]2)c1N [Example 5-1-203, [5-amino-1-[4-(2-fluorophenoxy)-2-methylphenyl]pyrazol-4-yl]-[6-fluoro-5-(1-propan-2-ylpiperidin-4-yl)oxy-1H-indol-2-yl]methanone]
